Tests used:
Assay type in all cases: in vivo
[1] = system: Ryegrass, Italian (Italian ryegrass, Lolium multiflorum); experiment: Test A postemergence, Ryegrass, Italian; settings: Postemergence, 0 to 100 scale (0 no effect, 100 complete control); for Ryegrass, Italian plant response rating: 500 g ai/ha, visual injury vs untreated controls after approx. 10 days
Procedure, shortened: (§1)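 Test chemicals, formulated in a non-phytotoxic solvent mixture with surfactant, were sprayed postemergence on plants 2 to 10 cm tall at the one- to two-leaf stage. Preemergence treatment was a directed soil spray onto freshly seeded pots. Both used a loam soil and sand blend.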

kochia (Bassia scoparia) [2] = experiment: Test A preemergence, kochia; settings: Preemergence; for Plant response rating, Kochia: 0 to 100 scale (0 no effect, 100 complete control); for Kochia plant response rating: 125 g ai/ha, visual injury on 0 to 100 scale (0 no effect, 100 complete control), approximately 10 days
Procedure, shortened: as §1

[3] = system: ragweed (common ragweed, Ambrosia artemisiifolia); experiment: Test A preemergence, ragweed; settings: Preemergence; for Plant response rating, Ragweed: 0 to 100 scale (0 no effect, 100 complete control); for Ragweed plant response rating: 125 g ai/ha, visual injury on 0 to 100 scale (0 no effect, 100 complete control), approximately 10 days
Procedure, shortened: as §1

[4] = system: barnyardgrass (Echinochloa crus-galli); experiment: Test A preemergence, barnyardgrass; settings: Preemergence; for Plant response rating, Barnyardgrass: 0 to 100 scale (0 no effect, 100 complete control); for Barnyardgrass plant response rating: 125 g ai/ha, visual injury on 0 to 100 scale (0 no effect, 100 complete control), approximately 10 days
Procedure, shortened: as §1

[5] = system: Foxtail, Giant (giant foxtail, Setaria faberi); experiment: Test A preemergence, Foxtail, Giant; settings: Preemergence; for Plant response rating, Foxtail, Giant: 0 to 100 scale (0 no effect, 100 complete control); for Foxtail, Giant plant response rating: 125 g ai/ha, visual injury on 0 to 100 scale (0 no effect, 100 complete control), approximately 10 days
Procedure, shortened: as §1

[6] = system: ragweed (common ragweed, Ambrosia artemisiifolia); experiment: Test A postemergence, ragweed; settings: Postemergence, 0 to 100 scale (0 no effect, 100 complete control); for Ragweed plant response rating: 500 g ai/ha, visual injury vs untreated controls after approx. 10 days
Procedure, shortened: as §1

[7] = system: Foxtail, Giant (giant foxtail, Setaria faberi); experiment: Test A postemergence, Foxtail, Giant; settings: Postemergence, 0 to 100 scale (0 no effect, 100 complete control); for Foxtail, Giant plant response rating: 500 g ai/ha, visual injury vs untreated controls after approx. 10 days
Procedure, shortened: as §1

corn (Zea mays) = experiment: Test A postemergence, corn; settings: Postemergence, 0 to 100 scale (0 no effect, 100 complete control); for Corn plant response rating: 500 g ai/ha, visual injury vs untreated controls after approx. 10 days
Procedure, shortened: as §1

[8] = system: pigweed (Amaranthus retroflexus); experiment: Test A postemergence, pigweed; settings: Postemergence, 0 to 100 scale (0 no effect, 100 complete control); for Pigweed plant response rating: 500 g ai/ha, visual injury vs untreated controls after approx. 10 days
Procedure, shortened: as §1

[9] = system: wheat (Triticum aestivum); experiment: Test A postemergence, wheat; settings: Postemergence, 0 to 100 scale (0 no effect, 100 complete control); for Wheat plant response rating: 500 g ai/ha, visual injury vs untreated controls after approx. 10 days
Procedure, shortened: (§2)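 Preemergence: seeded pots of loam plus sand received a directed soil spray. Postemergence: seedlings at one to two leaves, 2 to 10 cm high, were oversprayed. Each compound was formulated in a non-phytotoxic solvent mix that included a surfactant.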

[10] = system: pigweed (Amaranthus retroflexus); experiment: Test A preemergence, pigweed; settings: for Plant response rating, Pigweed: 0 to 100 scale (0 no effect, 100 complete control); for Pigweed plant response rating: 125 g ai/ha, visual injury on 0 to 100 scale (0 no effect, 100 complete control), approximately 10 days
Procedure, shortened: as §2

kochia (Bassia scoparia) [11] = experiment: Test A postemergence, kochia; settings: Postemergence, 0 to 100 scale (0 no effect, 100 complete control); for Kochia plant response rating: 500 g ai/ha, visual injury vs untreated controls after approx. 10 days
Procedure, shortened: as §1

[12] = system: barnyardgrass (Echinochloa crus-galli); experiment: Test A postemergence, barnyardgrass; settings: Postemergence, 0 to 100 scale (0 no effect, 100 complete control); for Barnyardgrass plant response rating: 500 g ai/ha, visual injury vs untreated controls after approx. 10 days
Procedure, shortened: as §2

[13] = system: blackgrass (Alopecurus myosuroides); experiment: Test A postemergence, blackgrass; settings: Postemergence, 0 to 100 scale (0 no effect, 100 complete control); for Blackgrass plant response rating: 500 g ai/ha, visual injury vs untreated controls after approx. 10 days
Procedure, shortened: as §1

[14] = system: Ryegrass, Italian (Italian ryegrass, Lolium multiflorum); experiment: Test A preemergence, Ryegrass, Italian; settings: Preemergence; for Plant response rating, Ryegrass, Italian: 0 to 100 scale (0 no effect, 100 complete control); for Ryegrass, Italian plant response rating: 125 g ai/ha, visual injury on 0 to 100 scale (0 no effect, 100 complete control), approximately 10 days
Procedure, shortened: as §1

[15] = system: galium (catchweed bedstraw, Galium aparine); experiment: Test A postemergence, galium; settings: Postemergence, 0 to 100 scale (0 no effect, 100 complete control); for Galium plant response rating: 500 g ai/ha, visual injury vs untreated controls after approx. 10 days
Procedure, shortened: as §2

[16] = 1000 g ai/ha, visual injury, approx. 10 days
[17] = 125 g ai/ha, visual injury approx. 10 days

SMILES: COC1CCN(C(=O)c2cc(NS(=O)(=O)C(F)(F)F)c(C)cc2C)CC1 [Compound 19]
- Plant response rating, Ryegrass, Italian [1, 16]: 50
- Plant response rating, Kochia (kochia (Bassia scoparia) [2]; 1000 g ai/ha): 90
- Plant response rating, Ragweed ([3]; 1000 g ai/ha): 90
- Plant response rating, Barnyardgrass ([4]; 1000 g ai/ha): 100
- Plant response rating, Foxtail, Giant ([5]; 1000 g ai/ha): 100
- Plant response rating, Ragweed [6, 16]: 80
- Plant response rating, Foxtail, Giant [7, 16]: 90
- Plant response rating, Corn (corn (Zea mays); [16]): 50
- Plant response rating, Pigweed [8, 16]: 80
- Plant response rating, Wheat [9, 16]: 50
- Plant response rating, Pigweed ([10]; 1000 g ai/ha): 100
- Plant response rating, Kochia (kochia (Bassia scoparia) [11]; [16]): 70
- Plant response rating, Barnyardgrass [12, 16]: 80
- Plant response rating, Blackgrass [13, 16]: 60
- Plant response rating, Ryegrass, Italian ([14]; 1000 g ai/ha): 90
- Plant response rating, Galium [15, 16]: 40

SMILES: Cc1c(NS(=O)(=O)C(F)(F)F)cc(C(=O)N2CCC3(CC2)OCCCO3)c(C)c1F [Compound 129]
- Plant response rating, Ryegrass, Italian [1, 17]: 0
- Ryegrass, Italian plant response rating [1]: 70
- Kochia plant response rating (kochia (Bassia scoparia) [2]): 80
- Plant response rating, Kochia (kochia (Bassia scoparia) [2]; 500 g ai/ha): 90
- Ragweed plant response rating [3]: 70
- Plant response rating, Ragweed ([3]; 500 g ai/ha): 90
- Barnyardgrass plant response rating [4]: 100
- Plant response rating, Barnyardgrass ([4]; 500 g ai/ha): 90
- Foxtail, Giant plant response rating [5]: 100
- Plant response rating, Foxtail, Giant ([5]; 500 g ai/ha): 100
- Plant response rating, Ragweed [6, 17]: 60
- Ragweed plant response rating [6]: 90
- Plant response rating, Foxtail, Giant [7, 17]: 0
- Foxtail, Giant plant response rating [7]: 30
- Plant response rating, Corn (corn (Zea mays); [17]): 10
- Corn plant response rating (corn (Zea mays)): 20
- Plant response rating, Pigweed [8, 17]: 30
- Pigweed plant response rating [8]: 90
- Plant response rating, Wheat [9, 17]: 30
- Wheat plant response rating [9]: 60
- Pigweed plant response rating [10]: 100
- Plant response rating, Pigweed ([10]; 500 g ai/ha): 100
- Plant response rating, Kochia (kochia (Bassia scoparia) [11]; [17]): 30
- Kochia plant response rating (kochia (Bassia scoparia) [11]): 50
- Plant response rating, Barnyardgrass [12, 17]: 20
- Barnyardgrass plant response rating [12]: 80
- Plant response rating, Blackgrass [13, 17]: 20
- Blackgrass plant response rating [13]: 30
- Ryegrass, Italian plant response rating [14]: 80
- Plant response rating, Ryegrass, Italian ([14]; 500 g ai/ha): 100
- Plant response rating, Galium [15, 17]: 60
- Galium plant response rating [15]: 80

SMILES: Cc1cc(C)c(C2=NOC3(CCOCC3)C2)cc1NS(=O)(=O)C(F)(F)F [Compound 177]
- Plant response rating, Ryegrass, Italian ([1]; 125 g ai/ha): 40
- Ryegrass, Italian plant response rating [1]: 90
- Kochia plant response rating (kochia (Bassia scoparia) [2]): 100
- Plant response rating, Kochia (kochia (Bassia scoparia) [2]; 500 g ai/ha): 100
- Ragweed plant response rating [3]: 70
- Plant response rating, Ragweed ([3]; 500 g ai/ha): 90
- Barnyardgrass plant response rating [4]: 80
- Plant response rating, Barnyardgrass ([4]; 500 g ai/ha): 100
- Foxtail, Giant plant response rating [5]: 70
- Plant response rating, Foxtail, Giant ([5]; 500 g ai/ha): 100
- Plant response rating, Ragweed ([6]; 125 g ai/ha): 90
- Ragweed plant response rating [6]: 90
- Plant response rating, Foxtail, Giant ([7]; 125 g ai/ha): 10
- Foxtail, Giant plant response rating [7]: 60
- Plant response rating, Corn (corn (Zea mays); 125 g ai/ha): 0
- Corn plant response rating (corn (Zea mays)): 50
- Plant response rating, Pigweed ([8]; 125 g ai/ha): 60
- Pigweed plant response rating [8]: 90
- Plant response rating, Wheat ([9]; 125 g ai/ha): 20
- Wheat plant response rating [9]: 80
- Pigweed plant response rating [10]: 80
- Plant response rating, Pigweed ([10]; 500 g ai/ha): 100
- Plant response rating, Kochia (kochia (Bassia scoparia) [11]; 125 g ai/ha): 20
- Kochia plant response rating (kochia (Bassia scoparia) [11]): 70
- Plant response rating, Barnyardgrass ([12]; 125 g ai/ha): 70
- Barnyardgrass plant response rating [12]: 90
- Plant response rating, Blackgrass ([13]; 125 g ai/ha): 0
- Blackgrass plant response rating [13]: 30
- Ryegrass, Italian plant response rating [14]: 100
- Plant response rating, Ryegrass, Italian ([14]; 500 g ai/ha): 100
- Plant response rating, Galium ([15]; 125 g ai/ha): 90
- Galium plant response rating [15]: 90
